ChEMBL document CHEMBL1152667, “Synthesis and radiopharmacological investigation of 3-[4'-[(18)F]fluorobenzylidene]indolin-2-one as possible tyrosine kinase inhibitor” (Bioorg Med Chem, 2009)

Legend:
Brain [1] = test: Biodistribution in Wistar rat brain assessed as standard uptake value at 1.7 MBq, iv administered as single dose measured after 30 mins post-injection by gamma counting; type: ADME, organism-based; settings: in vivo, 0.5 h
[2] = Biodistribution in Wistar rat thyroid gland assessed as standard uptake value at 1.7 MBq, iv administered as single dose measured after 30 mins post-injection by gamma counting; type: ADME, organism-based; settings: in vivo, 0.5 h
[3] = Biodistribution in Wistar rat adipose tissue assessed as standard uptake value at 1.7 MBq, iv administered as single dose measured after 30 mins post-injection by gamma counting; type: ADME, organism-based; settings: in vivo, 0.5 h
Spleen [4] = test: Biodistribution in Wistar rat spleen assessed as standard uptake value at 1.7 MBq, iv administered as single dose measured after 60 mins post-injection by gamma counting; type: ADME, organism-based; settings: in vivo, 1 h
[5] = Biodistribution in Wistar rat stomach at 1.7 MBq, iv administered as single dose measured after 5 mins post-injection by gamma counting; type: ADME, organism-based; settings: in vivo
Lung [6] = test: Biodistribution in Wistar rat lung assessed as standard uptake value at 1.7 MBq, iv administered as single dose measured after 10 mins post-injection by gamma counting; type: ADME, organism-based; settings: in vivo
Heart [7] = test: Biodistribution in Wistar rat heart at 1.7 MBq, iv administered as single dose measured after 5 mins post-injection by gamma counting; type: ADME, organism-based; settings: in vivo
Testes [8] = test: Biodistribution in Wistar rat testes assessed as standard uptake value at 1.7 MBq, iv administered as single dose measured after 5 mins post-injection by gamma counting; type: ADME, organism-based, Testis; settings: in vivo
Testes [9] = test: Biodistribution in Wistar rat testes assessed as standard uptake value at 1.7 MBq, iv administered as single dose measured after 60 mins post-injection by gamma counting; type: ADME, organism-based, Testis; settings: in vivo, 1 h
[10] = Ratio of drug level in heart to blood in Wistar rat at 1.7 MBq, iv administered as single dose measured after 60 mins post-injection; type: ADME, organism-based
Pancreas [11] = test: Biodistribution in Wistar rat pancreas at 1.7 MBq, iv administered as single dose measured after 30 mins post-injection by gamma counting; type: ADME, organism-based; settings: in vivo, 0.5 h
Intestine = test: Biodistribution in Wistar rat intestine at 1.7 MBq, iv administered as single dose measured after 5 mins post-injection by gamma counting; type: ADME, organism-based; settings: in vivo
Thymus [12] = test: Biodistribution in Wistar rat thymus assessed as standard uptake value at 1.7 MBq, iv administered as single dose measured after 30 mins post-injection by gamma counting; type: ADME, organism-based; settings: in vivo, 0.5 h
[13] = Biodistribution in Wistar rat adipose tissue assessed as standard uptake value at 1.7 MBq, iv administered as single dose measured after 1 min post-injection by gamma counting; type: ADME, organism-based; settings: in vivo
Harderian gland = test: Biodistribution in Wistar rat harderian gland assessed as standard uptake value at 1.7 MBq, iv administered as single dose measured after 5 mins post-injection by gamma counting; type: ADME, organism-based; settings: in vivo
Lung [14] = test: Biodistribution in Wistar rat lung assessed as standard uptake value at 1.7 MBq, iv administered as single dose measured after 1 min post-injection by gamma counting; type: ADME, organism-based; settings: in vivo
[15] = Ratio of drug level in kidney to blood in Wistar rat at 1.7 MBq, iv administered as single dose measured after 60 mins post-injection; type: ADME, organism-based
Blood = test: Biodistribution in Wistar rat blood assessed as standard uptake value at 1.7 MBq, iv administered as single dose measured after 5 mins post-injection by gamma counting; type: ADME, organism-based; settings: in vivo
Thymus [16] = test: Biodistribution in Wistar rat thymus assessed as standard uptake value at 1.7 MBq, iv administered as single dose measured after 60 mins post-injection by gamma counting; type: ADME, organism-based; settings: in vivo, 1 h
Liver [17] = test: Biodistribution in Wistar rat liver at 1.7 MBq, iv administered as single dose measured after 5 mins post-injection by gamma counting; type: ADME, organism-based; settings: in vivo
Liver [18] = test: Biodistribution in Wistar rat liver at 1.7 MBq, iv administered as single dose measured after 10 mins post-injection by gamma counting; type: ADME, organism-based; settings: in vivo
Adrenal gland = test: Biodistribution in Wistar rat adrenal gland assessed as standard uptake value at 1.7 MBq, iv administered as single dose measured after 10 mins post-injection by gamma counting; type: ADME, organism-based; settings: in vivo
Kidney [19] = test: Biodistribution in Wistar rat kidney at 1.7 MBq, iv administered as single dose measured after 30 mins post-injection by gamma counting; type: ADME, organism-based; settings: in vivo, 0.5 h
Brain [20] = test: Biodistribution in Wistar rat brain at 1.7 MBq, iv administered as single dose measured after 1 min post-injection by gamma counting; type: ADME, organism-based; settings: in vivo
[21] = Biodistribution in Wistar rat stomach at 1.7 MBq, iv administered as single dose measured after 60 mins post-injection by gamma counting; type: ADME, organism-based; settings: in vivo, 1 h
Pancreas [22] = test: Biodistribution in Wistar rat pancreas assessed as standard uptake value at 1.7 MBq, iv administered as single dose measured after 60 mins post-injection by gamma counting; type: ADME, organism-based; settings: in vivo, 1 h
[23] = Phase 1 elimination half life in Wistar rat at 30 MBq, iv by radio-HPLC analysis; type: ADME, organism-based; settings: in vivo, read-out: beta t1/2 (converted)
Lung [24] = test: Biodistribution in Wistar rat lung assessed as standard uptake value at 1.7 MBq, iv administered as single dose measured after 60 mins post-injection by gamma counting; type: ADME, organism-based; settings: in vivo, 1 h
Mus musculus = test: Metabolic stability in mouse at 11 MBq, iv after 45 mins by radio-HPLC analysis; type: ADME, organism-based; settings: in vivo, 0.75 h
Pancreas [25] = test: Biodistribution in Wistar rat pancreas at 1.7 MBq, iv administered as single dose measured after 5 mins post-injection by gamma counting; type: ADME, organism-based; settings: in vivo
[26] = Metabolic stability in Wistar rat blood assessed as compound remaining at 30 MBq, iv after 3 mins by radio-HPLC analysis; type: ADME, organism-based; settings: read-out: Stability
[27] = Metabolic stability in Wistar rat blood assessed as compound remaining at 0.5 MBq after 60 mins by radio-HPLC analysis; type: ADME, tissue-based; settings: read-out: Stability
Spleen [28] = test: Biodistribution in Wistar rat spleen assessed as standard uptake value at 1.7 MBq, iv administered as single dose measured after 5 mins post-injection by gamma counting; type: ADME, organism-based; settings: in vivo
[29] = Biodistribution in Wistar rat thyroid gland assessed as standard uptake value at 1.7 MBq, iv administered as single dose measured after 5 mins post-injection by gamma counting; type: ADME, organism-based; settings: in vivo
Kidney [30] = test: Biodistribution in Wistar rat kidney at 1.7 MBq, iv administered as single dose measured after 10 mins post-injection by gamma counting; type: ADME, organism-based; settings: in vivo
Brain [31] = test: Biodistribution in Wistar rat brain at 1.7 MBq, iv administered as single dose measured after 5 mins post-injection by gamma counting; type: ADME, organism-based; settings: in vivo
Heart [32] = test: Biodistribution in Wistar rat heart assessed as standard uptake value at 1.7 MBq, iv administered as single dose measured after 5 mins post-injection by gamma counting; type: ADME, organism-based; settings: in vivo
Femur = test: Biodistribution in Wistar rat femur at 1.7 MBq, iv administered as single dose measured after 60 mins post-injection by gamma counting; type: ADME, organism-based; settings: in vivo, 1 h
[33] = Octanol-phosphate buffer distribution coefficient, log D at pH 7.4 by shake-flask method; type: physicochemical
[34] = Ratio of drug level in pancreas to blood in Wistar rat at 1.7 MBq, iv administered as single dose measured after 5 mins post-injection; type: ADME, organism-based
Pancreas [35] = test: Biodistribution in Wistar rat pancreas assessed as standard uptake value at 1.7 MBq, iv administered as single dose measured after 1 min post-injection by gamma counting; type: ADME, organism-based; settings: in vivo
Lung [36] = test: Biodistribution in Wistar rat lung assessed as standard uptake value at 1.7 MBq, iv administered as single dose measured after 30 mins post-injection by gamma counting; type: ADME, organism-based; settings: in vivo, 0.5 h

SUV (Brain [1]): 0.41%
SUV [2]: 0.4%
SUV [3]: 1.17%
SUV (Spleen [4]): 0.13%
Drug uptake [5]: 0.94 %ID
SUV (Lung [6]): 0.85%
Drug uptake (Heart [7]): 0.54 %ID
SUV (Testes [8]): 0.41%
SUV (Testes [9]): 0.19%
Kp at 1 h [10]: 1.8
Drug uptake (Pancreas [11]): 0.11 %ID
Drug uptake (Intestine): 13.96 %ID
SUV (Thymus [12]): 0.26%
SUV [13]: 0.7%
SUV (Harderian gland): 2.43%
SUV (Lung [14]): 4.26%
Kp at 1 h [15]: 7.6
SUV (Blood): 0.56%
SUV (Thymus [16]): 0.13%
Drug uptake (Liver [17]): 18.4 %ID
Drug uptake (Liver [18]): 17.84 %ID
SUV (Adrenal gland): 3.2%
Drug uptake (Kidney [19]): 1.45 %ID
Drug uptake (Brain [20]): 3.09 %ID
Drug uptake [21]: 0.6 %ID
SUV (Pancreas [22]): 0.3%
half-life [23]: 8 s
SUV (Lung [24]): 0.27%
Stability (Mus musculus): Unstable
Drug uptake (Pancreas [25]): 0.38 %ID
remaining at 0.05 h [26]: 54%
remaining at 1 h, 0.5 MBq [27]: 84%
SUV (Spleen [28]): 0.79%
SUV [29]: 0.99%
Drug uptake (Kidney [30]): 2.28 %ID
Drug uptake (Brain [31]): 1.87 %ID
SUV (Heart [32]): 1.33%
Drug uptake (Femur): 0.11 %ID
logD [33]: 3.39
Kp at 5 min [34]: 3
SUV (Pancreas [35]): 2.4%
SUV (Lung [36]): 0.47%
Compound: O=C1Nc2ccccc2/C1=C/c1ccc([18F])cc1
